# A melting point compilation (Tetko et al.; mined from patent text by program, amines drawn as free bases though some values may be those of a salt)
row,Compound,melting point
1,COc1ccc(C(NCCC(c2ccccc2)c2ccccc2)c2cccc(Nc3c(N)c(=O)c3=O)c2)cc1 (centres undefined),132 to 134 °C
2,CS(=O)(=O)c1c(N2CCN(C(=O)c3cccs3)CC2)c2cccnc2n(Cc2ccccc2)c1=O,223 °C
3,COC(=O)C1=C(C)NC(C)=C(C(=O)OC)C1c1ccccc1F,206 to 208 °C
4,CC#CCOc1ccc(S(=O)(=O)NCCC(=O)OC(C)(C)C)cc1,63 to 65 °C
5,Cc1cn(Nc2ccncc2F)c2ccc(OCc3ccccc3)cc12,210 to 213 °C
6,CCC(C)(C)c1ccc2oc(-c3ccc(O)cc3)nc2c1,236 to 237 °C
7,CCCOc1cc(-c2cc3c(=O)[nH]c(C)nc3cc2C(C)C)ccc1Cl,236 °C
8,O=C(/C=C/c1ccccc1I)NCCO,130 to 132 °C
9,"CCOc1ccccc1OCC(O)CNC(C)=CC(=O)c1cccnc1 (single isomer, unassigned; (-))",94 °C
10,CCOC(=O)CCC(=O)c1ccc(Cl)cc1OCC(O)CNC(C)(C)C (centres undefined),70 °C
11,CC(C)(C)c1cc(CCc2ccc(Cl)cc2NC(=O)NC2CCN(Cc3ccccc3)CC2)cc(C(C)(C)C)c1O,155 to 156 °C
12,CCOC(=O)c1nnc(-c2ccc(Cl)cc2)o1,117 to 118 °C
13,CNC(=O)Nc1ccccc1,149 to 150 °C
14,N#Cc1cc(C(=O)O)ccc1F,177 to 178 °C
15,CCCCC(=O)OCC(=O)C1(OC(C)=O)CCC2C3CC(C)C4=CC(=O)C=CC4(C)C3C(O)CC21C (centres undefined),148 to 150 °C
16,CCCCCCCCCCCCCCCCNC(=O)CC#N,95.5 to 96.5 °C
17,Cc1ncn(-c2ccc(N)cc2F)n1,122 to 125 °C
18,CC(=O)NNC1=Nc2ccc(Cl)cc2C(c2c(F)cccc2F)=NC1,274 to 277 °C
19,O=C(O)COc1ccc2c(-c3ccccn3)noc2c1Cl,255 to 256 °C
20,Cn1c(=O)c2c(ncn2CCCCC(=O)CBr)n(C)c1=O,106 to 109 °C
21,CC(C)C[C@@H](C(=O)N1CCN(C(c2ccc(F)cc2)c2ccc(F)cc2)CC1)N(Cc1ccc(OC(C)(C)C)cc1)Cc1ccc(OC(C)(C)C)cc1,62 to 67 °C
22,O=S(=O)(Nc1ccc2c(OCc3coc(-c4ccc(Cl)cc4)n3)cccc2c1)C(F)(F)F,198 to 200 °C
23,CCCP(=O)(CCC)COS(=O)(=O)c1c(C)cccc1Cl,51 to 53 °C
24,N#Cc1cc(Cl)cc(Oc2ccc(CC(=O)Nc3ccc(S(N)(=O)=O)cc3Br)cc2Br)c1,168 to 170 °C
25,CN1CCN(c2cc(Cl)cc3c2c(=O)n(CC2CCCCC2)c(=O)n3Cc2ccccc2)CC1,163 to 169 °C

row,Compound,melting point
1,CCCCCCCCCCc1nnn(CC(=O)O)n1,83 to 86 °C
2,N#Cc1cnc2cnc(Cl)cc2c1Nc1cccc(Br)c1,220 to 223 °C
3,c1ccc(C2CCCC2OCC2CO2)cc1 (centres undefined),31 °C
4,C#CCOc1ccc(CCNC(=O)C(=O)c2ccc(-c3ccc(Cl)cc3)cc2)cc1OC,122 to 124 °C
5,CC(=O)Nc1cc(C(F)(F)F)ccc1S(=O)(=O)CC#N,146 to 147 °C
6,N#Cc1ccc(C(F)(F)F)c(C(F)(F)F)c1,71 to 72 °C
7,O=C(N1CCc2ccc(S(=O)(=O)Cl)cc2C1)C(F)(F)F,104 to 105 °C
8,CC(C)(C)c1ccc(C(O)(c2ccccc2)c2ncc[nH]2)cc1 (centres undefined),166 °C
9,COCCNC(=O)c1cccc(-c2cccc3cc(Cc4cccc(F)c4)sc23)c1,108 to 110 °C
10,CCCc1nc(C(C)(O)CC)c(C#N)[nH]1 (centres undefined),157 to 159 °C
11,O=C(N[C@H](Cc1ccc(C(F)(F)F)cc1)[C@@H](O)c1cccc(Oc2ccccc2)c1)c1ccc(F)c2ccccc12 (racemic),184 to 185 °C
12,CC(=O)OC1CSC(Oc2cncc(C#N)c2)C(OC(C)=O)C1OC(C)=O (centres undefined),147 °C
13,CCc1c(OC)cc(C2CNC(=O)C2)cc1OC (centres undefined),156 °C
14,Cc1nc2ccc(NCCCN3CCC(OC(c4ccccc4)c4ccccc4)CC3)nn2n1,119 to 120 °C
15,CC(=O)Nc1ccc(Nc2c([N+](=O)[O-])cc(C(=O)O)cc2S(=O)(=O)Nc2ccccc2NC(C)=O)cc1,252 to 253 °C
16,CN1C(=O)CC(c2c[nH]c3ccc(Br)cc23)C1=O (centres undefined),194 to 195 °C
17,Cc1ccc(C(=CC=O)c2ccc(C)cc2)cc1,92 to 93.5 °C
18,CC(C)(C)C1CC(=O)CC(C(C)(C)C)N1 (centres undefined),55.4 °C
19,O=C(O)c1cccc(Nc2nc(Oc3ccccc3)nc(Oc3cccc([N+](=O)[O-])c3)n2)c1,225 to 228 °C
20,COC(=O)C1=C(C)NC(C)=C(C(=O)OCCN(C)Cc2ccccc2)C1c1cc([N+](=O)[O-])ccn1 (centres undefined),163 °C
21,CCCCCCCCCCCC(=O)N[C@@H](C)C(=O)N[C@H](CCC(=O)O)C(N)=O,163 °C
22,CCOC(=O)CCC(=O)c1ccc(CCN(CC=Cc2ccc(Cl)cc2)S(=O)(=O)c2ccc(Cl)cc2)cc1,100 to 101 °C
23,Cc1cccc(NC(=O)Nc2ccc(-c3c(C(C)C)sc4ncnc(N)c34)cc2)c1,169 to 171 °C
24,O=C(O)c1ccc(NC(=O)c2ccc3c(c2)SCCCC3)cc1,261 to 262 °C
25,CCN(CC)C(=O)/C=C(\C)c1ccc(OC(C)c2ccccc2)c(OC(C)(C)C(=O)O)c1 (centres undefined),117 to 119 °C

row,Compound,melting point
1,Cc1cccc(C)c1NC(=O)NO,192 to 193 °C
2,N=c1nc(Cl)cc(N)n1O,193 °C
3,CCNC(=O)C(C)n1cc(C)c(-c2ccccc2)n1 (centres undefined),78 to 79 °C
4,CS(=O)(=O)c1ccccc1-c1ccn[nH]c1=O,123 to 125 °C
5,O=C(O)c1ccc(C=C2CCc3cc(OCCn4ccnc4)ccc3C2=O)cc1,267 to 268 °C
6,O=C(O)c1c2n(c3cc(N4CCN(CCO)CC4)c(F)cc3c1=O)CCS2,256 °C
7,CCc1cnc(-c2ccc(N=C=S)cc2)nc1,114 °C
8,CCOC1CN(CC=CC(=O)Nc2cc3c(Nc4cccc(Br)c4)ncnc3cc2OC)CC(OCC)O1 (centres undefined),133 to 138 °C
9,O=C(O)COc1ccc(-c2ccc(-c3c(Cc4ccccc4)sc4ccccc34)cc2)cc1Br,150 to 152 °C
10,CCOCC(=O)Nc1cccc(NC)c1C#N,133 to 134 °C
11,COc1cc(OC)nc(Oc2cccc(OC(F)F)c2C(=O)O)n1,113 to 115 °C
12,CC1(C)CC(=O)C(C)(C)c2cc(C=O)ccc21,82 to 84 °C
13,COCc1cnc2c(NC(=O)c3c(Cl)cccc3Cl)cccc2c1COC,160 to 161 °C
14,CC(=O)/C=C/c1cc(F)c2ncc(C(=O)NCc3ccc(Cl)cc3)c(O)c2c1,286 to 289 °C
15,Oc1nc2cc(Cl)c3nccnc3c2nc1O,> 300 °C
16,Cc1cc2c([N+](=O)[O-])cccc2c(Cl)n1,112 °C
17,O=Cc1cc(-c2ccccc2F)n(S(=O)(=O)c2cccnc2)c1,106 to 108 °C
18,FC(F)(F)c1cc(Cl)c(-n2ncc(-c3nc(C(F)(F)F)c[nH]3)n2)c(Cl)c1,262 to 264 °C
19,CC(c1ccc(Cl)cc1Cl)n1nc(C(=O)O)cc1-c1ccc(Cl)cc1 (centres undefined),80 °C
20,CCNC(=O)Oc1cccc(NC(=O)CC(C)=O)c1,138 °C
21,CCC(C)(C)C1=CC(=CC(=O)O)C=C(C(C)(C)CC)C1=O,109 to 110 °C
22,c1cn2c(n1)-c1sccc1-n1cnc(-c3nc(C4CC4)no3)c1C2,231 to 233 °C
23,NC(=O)C(CCc1ccccc1)NC(=O)c1ccc2[nH]c(-c3ccccc3)c(-c3ccccc3)c2c1 (centres undefined),120 to 125 °C
24,CSc1nn(C(=O)NC(C)(C)C)c(=O)n1N,134 °C
25,COc1cc(C2OCC(C)(C)C2(O)C(C)(C)C)cc(OC)c1Br (centres undefined),130 to 131 °C

row,Compound,melting point
1,CC(=O)c1cn(Cc2ccccc2F)c(=O)n(Cc2ccccc2F)c1=O,149 to 150 °C
2,CC(=O)c1c(S(=O)(=O)C(F)(F)F)c(C#N)nn1-c1c(Cl)cc(C(F)(F)F)cc1Cl,161 °C
3,CCOc1ccccc1NC(=O)C(C)(C)CCCOc1cc(C)ccc1C,59 to 60 °C
4,CCOC(=N)c1ccc(-c2cc3ncn([C@H](C)[C@](O)(Cn4cncn4)c4ccc(F)cc4F)c(=O)c3s2)cc1,158 to 161 °C
5,CCOc1cc(OCCCc2cn(-c3cc(C(F)(F)F)ccn3)nc2OCC)ccc1CCC(=O)O,119 to 120 °C
6,COC(=O)C(O)=CC(=O)c1cn(Cc2ccccc2)cc(Cc2ccccc2)c1=O,148 to 150 °C
7,COc1cccc2c1OCC(C(=O)O)O2 (centres undefined),85 to 87 °C
8,C[C@@H]1Cc2cc3c(cc2C(c2ccc(Cl)cc2)=NN1C1=NCCS1)OCO3,216 to 219 °C
9,CCOC(=O)C(O[Si](C)(C)C)C(O[Si](C)(C)C)c1cc(OC)c(OC)cc1[N+](=O)[O-] (centres undefined),151 to 153 °C
10,O=[N+]([O-])c1ccc(O)cc1Br,130 to 135 °C
11,COc1ccc(C=Cc2ccc(CBr)cc2)cc1,147 to 148 °C
12,Cc1ccc(-c2ccc3c(c2)C=C(C(=O)Nc2ccc(CSC4CCCCC4)cc2)CCO3)cc1,161 to 162 °C
13,CCCc1nc2c(C)cccc2n1Cc1ccc(-c2ccccc2-c2nnn[nH]2)nc1,169 to 170 °C
14,NC(=O)Cc1nc(-c2ccccc2)c(-c2ccccc2)o1,129 to 133 °C
15,O=Cc1cc(-n2nnnc2C(F)(F)F)ccc1OCC1CC1,80 to 82 °C
16,Cc1ccccc1N1CCN(CCn2c(=O)[nH]c3sccc3c2=O)CC1,191 to 193 °C
17,COc1ccc(-c2cc(=O)n(C)c(=O)[nH]2)cc1OC,262 to 263 °C
18,CCOC(=O)c1[nH]cc(Cc2cccc(F)c2C)c1-c1ccccc1,120 to 122 °C
19,Cn1c(COc2ccc(CC3SC(=O)NC3=O)cc2)nc2ccc(Cl)nc21 (centres undefined),222 to 223 °C
20,COC(Cc1ccc2oc(Cc3nc(-c4ccccc4)oc3C)cc2c1)C(=O)O (centres undefined),159 to 160 °C
21,CC(C)N(CCC12CC3CC(CC(C3)C1)C2)C(=O)NCCCc1ccncc1,132 to 134 °C
22,COc1cc2cc(OCc3ccccc3)cnc2cc1OC,146 to 148 °C
23,CCNCC1CCN(c2c(F)c(C)c3c(=O)c(C(=O)O)cn(C4CC4)c3c2F)C1 (centres undefined),198 to 199 °C
24,C[Si](C)(C)c1ccc(Cl)c(Cl)c1C(=O)O,117 to 119 °C
